Measured values from patent US5484776A, “Process for the production of stable liquid form of beta-blocker-containing medicaments with controlled release of the active constituent for oral administration” (Synepos Aktiengesellschaft, priority 1993, dated 1996).

Experiment: Drop size / reproducibility of drops of oral solutions with xanthan gum
Type: physicochemical
Conditions: metoprolol 200 mg/ml, sotalol 160 mg/ml, atenolol 50 mg/ml, n = 10
Excerpt: It was found also in this respect that when the concentration of Xanthan Gum was varied in the solution, the scattering of the exact number of drops was higher at both below and above 0.1% than at about this particular concentration (see Table II.).
Using a standard medicine dropper, 10 drops of the medicinal solutions prepared according to Examples 1-11 contain one usual dose of the beta-blocker in a stable form and ensuring reproducible dosage with the required accuracy, the difference by one drop corresponding to a deviation of less than 10%.
Drop size values of different solutions of β-blockers
and xanthan gum as auxiliary material (n = 10,

Row | Average Mass of 10 Drops (0.001% xanthan gum) | Average Mass of 10 Drops (0.01% xanthan gum) | Average Mass of 10 Drops (0.1% xanthan gum) | Average Mass of 10 Drops (0.25% xanthan gum) | Average Mass of 10 Drops (0.5% xanthan gum) | SMILES
1 | 0.4038 g | 0.4094 g | 0.4395 g | 0.4604 g | 0.4456 g | CC(C)NCC(O)COc1ccc(CC(N)=O)cc1 (stereo not drawn) [Atenolol, atenolol]
2 | 0.3490 g | 0.3446 g | 0.3301 g | 0.3497 g | 0.3559 g | COCCc1ccc(OCC(O)CNC(C)C)cc1 (stereo not drawn) [Metoprolol, metoprolol]
3 | 0.3805 g | 0.4067 g | 0.4171 g | 0.4345 g | 0.4052 g | CC(C)NCC(O)c1ccc(NS(C)(=O)=O)cc1 (stereo not drawn) [Sotalol, sotalol]
